Experimental findings from ChEMBL document CHEMBL2384993, “Multidimensional optimization of promising antitumor xanthone derivatives” (Bioorg Med Chem, 2013) are described below.

Series [1] is described as follows: Thermodynamic solubility of the compound after 24 hrs at pH 7.4 by spectrophotometric analysis. The format is physicochemical. To be noted: buffer, read-out: Therm_solubility.
Series [2] is described as follows: Micelles-buffer partition coefficient, log K of the compound after 30 mins at pH 7.4 by UV-vis spectrophotometric analysis. The format is physicochemical. Conditions: pH 7.4, 0.5 h.
Series [3] is described as follows: Growth inhibition of human A375-C5 cells after 48 hrs by sulforhodamine B assay. The format is functional. To be noted: A375-C5, 48 h. (In SRB staining, fixed cells bind dye roughly in proportion to their protein.)
The subject of the next series is MCF7. Kind of series: Growth inhibition of human MCF7 cells after 48 hrs by sulforhodamine B assay. The format is functional. To be noted: MCF7, 48 h.
Series [4] is described as follows: Liposomes-buffer partition coefficient, log K of the compound after 30 mins at pH 7.4 by UV-vis spectrophotometric analysis. The series is classed as physicochemical. To be noted: artificial membrane, pH 7.4, 0.5 h.
Series [5] deals with HL-60. Kind of series: Growth inhibition of human HL60 cells after 48 hrs by sulforhodamine B assay. The series is classed as functional. Conditions: HL-60, 48 h.
For a further series, the system named is NCI-H460. The series is described as follows: Growth inhibition of human NCI-H460 cells after 48 hrs by sulforhodamine B assay. The series is classed as functional. Conditions: NCI-H460, 48 h.
Series [6] has as its system HL-60. Kind of series: Cytotoxicity against human HL60 cells after 24 to 72 hrs by trypan blue exclusion assay. The format is functional, cell-based.

SMILES strings stand for the structures. pIC50: −log10 of the molar value. In brackets after ≈: the same amount, converted by molar mass. A value given as a limit tells only on which side of the number the result lay.

As for `COc1ccc2oc3c(O)c4c(cc3c(=O)c2c1)CCC(C)(C)O4`, in series [1], the solubility thermodynamic at 24 h was less than 0.1 µM. For the same compound, the “log K” value in series [2] worked out at 3.35; in series [4], 3.25. In addition, the concentration for 50% growth inhibition (GI50) – broadly, the concentration at which growth is held to half of that of the control – is more than 150 µM in series [3], more than 150 µM with MCF7, 23.9 µM with HL-60 [5] and more than 150 µM in the series with NCI-H460.

Take `CCN(CC)c1ccc2c(=O)c3cc4c(c(OC)c3oc2c1)CCC(C)(C)O4`: the figures for the “log K” value in series [2] and in series [4] were 4.7 and 4.62, respectively. Further, the GI50 worked out at 19.6 µM in series [3], 14.5 µM in the series on MCF7, 14.4 µM in the series with HL-60 [5] and 13.7 µM in the series with NCI-H460.

As for `COc1c2c(cc3c(=O)c4ccccc4oc13)CCC(C)(C)O2`, the figures for the “log K” value in series [2] and in series [4] were 3.59 and 3.6, respectively. Further, the concentration for 50% growth inhibition (GI50) in series [3] is more than 150 µM; with MCF7 it was more than 150 µM; in the series on HL-60 [5], 8.8 µM; with NCI-H460, more than 150 µM.

Consider `COc1c2c(cc3c(=O)c4ccc(O)cc4oc13)CCC(C)(C)O2`, for which the “log K” value was determined as 3.49 in series [2] and 3.43 in series [4]. For the same compound, the concentration for 50% growth inhibition (GI50) was more than 150 µM in series [3], more than 150 µM in the series on MCF7, 8.3 µM in the series with HL-60 [5] and more than 150 µM with NCI-H460.

`COc1c2c(cc3c(=O)c4cc(Cl)ccc4oc13)OC(C)(C)CC2`: the “log K” value in series [2] was found to be 4.41; in series [4], 4.48. For the same compound, the GI50 in series [3] was more than 75 µM; in the series with MCF7, more than 75 µM; with HL-60 [5] it was 48.4 µM; in the series with NCI-H460 it was more than 75 µM.

In the case of `CC1(C)CCc2cc3c(=O)c4ccccc4oc3c(O)c2O1` [DIHYDRO-12-HYDROXY-2,2-DIMETHYL-2H,6H-PYRANO[3,2-B]XANTHEN-6-ONE], the solubility thermodynamic at 24 h in series [1] was determined as 0.4 µM (≈ 0.119 µg/mL). The “log K” value came to 3.28 in series [2] and 3.35 in series [4]. Moreover, the GI50 stood at 28.9 µM in series [3], 39.7 µM in the series with MCF7, 23.4 µM in the series on HL-60 [5] and 40.3 µM in the series on NCI-H460. Further, the pIC50 (usually the IC50 on a negative log10 scale, so that one unit is a factor of ten) with HL-60 [6] is 5.22.

Take `COc1cc2oc3c(OC)c4c(cc3c(=O)c2cc1OC)CCC(C)(C)O4`: in series [2], the “log K” value is 3.88. Also, the 50% growth inhibitory concentration (GI50) is more than 100 µM in series [3], more than 100 µM in the series with MCF7, 72.3 µM in the series with HL-60 [5] and more than 100 µM in the series with NCI-H460.

For the compound `CC1(C)CCc2cc3c(=O)c4ccc(O)cc4oc3c(O)c2O1`, the solubility thermodynamic at 24 h in series [1] is 0.62 µM (≈ 0.194 µg/mL). Moreover, the “log K” value in series [2] is recorded as 3.76; in series [4] it was 3.32. For the same compound, the GI50 in series [3] came out at 40.7 µM; with MCF7, 82.5 µM; in the series with HL-60 [5], 57 µM; with NCI-H460, 59.1 µM.

With `COc1c2c(cc3c(=O)c4ccc(O)cc4oc13)OC(C)(C)C=C2`, in series [2], the “log K” value is listed as 3.9. Moreover, the GI50 was found to be 27.1 µM in series [3], 36.9 µM with MCF7, 18.8 µM in the series on HL-60 [5] and 34.9 µM in the series on NCI-H460.

On to `CCN(CC)c1ccc2c(=O)c3cc4c(c(OC)c3oc2c1)C=CC(C)(C)O4`, for which the GI50 in series [3] came to 21.9 µM; in the series on MCF7, 34.3 µM; with HL-60 [5], 9.2 µM; with NCI-H460, 26.8 µM.

For the compound `Cc1ccc2oc3c(O)c4c(cc3c(=O)c2c1)CCC(C)(C)O4`, the solubility thermodynamic at 24 h in series [1] was less than 0.1 µM. The “log K” value in series [2] is 3.92; in series [4], 3.86. For the same compound, the concentration for 50% growth inhibition (GI50) in series [3] is 17.6 µM; with MCF7, more than 150 µM; in the series with HL-60 [5] it was 12.5 µM; in the series on NCI-H460, 48.1 µM.

Take `COc1ccc2oc3c(OC)c4c(cc3c(=O)c2c1)OC(C)(C)C=C4`: the “log K” value in series [2] is given as 4.21. Further, the GI50 (in series [3]; in the series on MCF7; with NCI-H460) was more than 150 µM throughout.

For the compound `COc1c2c(cc3c(=O)c4cc(Cl)ccc4oc13)OC(C)(C)C=C2`, in series [2], the “log K” value was 4.34. The concentration for 50% growth inhibition (GI50) is more than 150 µM in series [3], more than 150 µM in the series on MCF7, 14.1 µM in the series with HL-60 [5] and more than 150 µM in the series with NCI-H460.

Consider `COc1cccc2c(=O)c3cc4c(c(O)c3oc12)OC(C)(C)CC4`, for which the solubility thermodynamic at 24 h in series [1] came out at 0.23 µM (≈ 0.0751 µg/mL). Also, the entries for the “log K” value in series [2] and in series [4] were 3.58 and 3.53, respectively. The values for the GI50 (in series [3]; in the series on HL-60 [5]; in the series with NCI-H460) were 68 µM, 27.3 µM and 41.1 µM, respectively.

With `COc1c2c(cc3c(=O)c4cc(C)ccc4oc13)CCC(C)(C)O2`, the “log K” value in series [2] came to 4.01; in series [4], 4.02. For the same compound, the GI50 in series [3] amounted to 29.7 µM; with MCF7, 31.8 µM; in the series with HL-60 [5] it was 5.14 µM; in the series with NCI-H460, 30.9 µM.

For the compound `COc1c2c(cc3c(=O)c4cc(C)ccc4oc13)OC(C)(C)C=C2`, the entries for the “log K” value in series [2] and in series [4] were 4.29 and 4.32, respectively. Further, the 50% growth inhibitory concentration (GI50) (in series [3]; with MCF7; with HL-60 [5]; in the series with NCI-H460) was more than 50 µM in each case.

As to `CC1(C)CCc2cc3c(=O)c4cc(Cl)ccc4oc3c(O)c2O1`, in series [1], the solubility thermodynamic at 24 h was less than 0.1 µM. The “log K” value in series [2] was 4.39. Also, the concentration for 50% growth inhibition (GI50) in series [3] is more than 150 µM; in the series on MCF7 it was more than 150 µM; in the series on HL-60 [5], 9 µM; in the series on NCI-H460 it was more than 150 µM.

In the case of `COc1cc2oc3c(OC)c4c(cc3c(=O)c2cc1OC)OC(C)(C)CC4`, the “log K” value in series [2] turned out to be 3.83; in series [4] it was 3.88. In addition, the concentration for 50% growth inhibition (GI50) (in series [3]; with MCF7; in the series on NCI-H460) was more than 75 µM in each case.

Regarding `COc1cccc2c1C(=O)c1c(O)c3c(c(O)c1C2=O)C[C@@](O)(C(=O)CO)C[C@@H]3O[C@H]1C[C@H](N)[C@H](O)[C@H](C)O1` [DOXORUBICIN], the concentration for 50% growth inhibition (GI50) came out at 0.145 µM in series [3], 0.0654 µM in the series on MCF7, 0.028 µM in the series on HL-60 [5] and 0.0641 µM in the series on NCI-H460.
